Results reported in patent US20250205186A1, “USE OF CHLOROGENIC ACID IN PREPARING MEDICINE OR PHARMACEUTICAL COMPOSITION FOR PREVENTING OR TREATING PAIN” (SICHUAN JIUZHANG BIOLOGICAL SCIENCE AND TECHNOLOGY CO., LTD., priority 2019, published 2025).

Key:
IL-6 = experiment: Serum IL-6 content by ELISA in bone cancer pain rats; format: in vivo, rat; conditions: for Cytokines IL-6 content in serum: after 15 days of administration; for Serum level of IL-6 compared with the model-negative group: after 15 days
Method: (§1) 60 SD rats were randomly selected, and after anesthesia, a small 1 cm incision was made in the upper tibial skin. A 10 mL syringe needle was used to puncture and perforate, then a 10 μL syringe was inserted into the bone marrow cavity, and 3 μL cell suspension containing 3×10^3 Walker rat breast cancer cells was slowly injected. The pinhole was sealed with bone wax, and the skin was sutured. After surgery, the rats were placed on a 37° C. hot plate for rewarming. After recovery, rats were returned to the cage for further breeding, to obtain the model group. In addition, 8 SD rats were randomly selected, and an equal volume of PBS solution was injected into the marrow cavity of the left upper tibia. The rest of the operations were the same as the model group, to obtain the sham operation group. The rats that had been successfully modeled were randomly divided into groups, eight rats for each group, that included high-dose chlorogenic acid group (80 mg/kg), middle-dose chlorogenic acid group (40 mg/kg), low-dose chlorogenic acid group (20 mg/kg), model negative group (N.S normal saline), and sham operation group (N.S normal saline). The rats were intraperitoneally injected with drugs for 15 days in a volume of 0.2 mL/10 g, once a day; the model-negative group and the sham operation group were given the same volume of normal saline. After the last administration, blood was collected from the eyeballs of the rats, and the animals in each group were sacrificed by neck removal. The blood samples were allowed to stand at room temperature for 20 minutes and then centrifuged. The supernatant was collected and the contents of TNF-α, IL-1β, and IL-6 in the peripheral blood serum of the […] were determined by ELISA.

[1] = tested on: bone cancer pain in rats (Walker rat breast cancer cells, tibia implant model); experiment: Mechanical pain hypersensitivity (paw withdrawal threshold) in rat tibia implant bone cancer pain model; format: in vivo; conditions: for Paw withdrawal threshold compared with the model group: from 5-7 days after administration, p<0.05
Method: After two SD female rats were intraperitoneally injected with 0.5 mL cancer cells (4×10^4 cells/μL), ascites was collected on the 7th day, and the cells are rinsed 3 times with sterile 0.01 mol/L PBS to adjust to the concentration of 4×10^3 cells/μL for use. 60 SD rats were randomly selected, and after anesthesia, a small 1 cm incision was made in the upper tibial skin. A 10 mL syringe needle was used to puncture and perforate, then a 10 μL syringe was inserted into the bone marrow cavity, and 3 μL cell suspension containing […] Walker rat breast cancer cells was slowly injected. The pinhole was sealed with bone wax, and the skin was sutured. After surgery, the rats were placed on a 37° C. hot plate for rewarming. After recovery, rats were returned to the cage for further breeding, to obtain the model group. In addition, 8 SD rats were randomly selected, and an equal volume of PBS solution was injected into the marrow cavity of the left upper tibia. The rest of the operations were the same as the model group, to obtain the sham operation group. Mechanical pain hypersensitivity: continuous pain measurement was performed from the 10th day after the operation, the contact stimulator's fine fibers were allowed to touch with the middle of the affected side of the rat's plantar, and the force can be increased up to 80 g within 5 seconds. The rat's paw withdrawal respond was observed, and the paw withdrawal threshold was recorded. Each animal was tested 5 times, with an interval of 5 min between two tests. […] The rats that had been successfully modeled were randomly divided into groups, eight rats for each group, that included high-dose chlorogenic acid group (80 mg/kg), middle-dose chlorogenic acid group (40 mg/kg), low-dose chlorogenic acid group (20 mg/kg), model negative group (N.S normal saline), and sham operation group (N.S normal saline). The rats were intraperitoneally injected with drugs for 15 days in a volume of 0.2 mL/10 g, once a day; the model-negative group and the sham operation group were given the same volume of normal saline. From the second day after administration, the mechanical pain hypersensitivity and radiation thermal pain were investigated before each administration, and the paw withdrawal threshold and the pain threshold were recorded.

IL-1β = experiment: Serum IL-1β content by ELISA in bone cancer pain rats; format: in vivo, rat; conditions: for Cytokines IL-1β content in serum: after 15 days of administration; for Serum level of IL-1β compared with the model-negative group: after 15 days
Method: as §1

## O=C(/C=C/c1ccc(O)c(O)c1)O[C@@H]1C[C@](O)(C(=O)O)C[C@@H](O)[C@H]1O [Chlorogenic acid]
IL-6; 20 mg/kg ip once a day
  Cytokines IL-6 content in serum: 84.09 ± 5.16 ng/L
IL-6; 20 mg/kg, p<0.05
  Serum level of IL-6 compared with the model-negative group: lower than those in the model-negative group
IL-6; 40 mg/kg ip once a day
  Cytokines IL-6 content in serum: 78.73 ± 6.39 ng/L
IL-6; 40 mg/kg, p<0.05
  Serum level of IL-6 compared with the model-negative group: lower than those in the model-negative group
IL-6; 80 mg/kg ip once a day
  Cytokines IL-6 content in serum: 98.82 ± 4.54 ng/L
IL-6; 80 mg/kg
  Serum level of IL-6 compared with the model-negative group: the difference was not significant
[1]; 20 mg/kg ip once a day, 2 d
  Paw withdraw threshold: 16.46 g
[1]; 20 mg/kg ip once a day, 3 d
  Paw withdraw threshold: 22.32 g
[1]; 20 mg/kg ip once a day, 4 d
  Paw withdraw threshold: 26.14 g
[1]; 20 mg/kg ip once a day, 5 d
  Paw withdraw threshold: 24.86 g
[1]; 20 mg/kg ip once a day, 6 d
  Paw withdraw threshold: 31.21 g
[1]; 20 mg/kg ip once a day, 7 d
  Paw withdraw threshold: 37.06 g
[1]; 20 mg/kg ip once a day, 8 d
  Paw withdraw threshold: 35.11 g
[1]; 20 mg/kg ip once a day, 9 d
  Paw withdraw threshold: 38.48 g
[1]; 20 mg/kg ip once a day, 10 d
  Paw withdraw threshold: 37.23 g
[1]; 20 mg/kg ip once a day, 11 d
  Paw withdraw threshold: 34.22 g
[1]; 20 mg/kg ip once a day, 12 d
  Paw withdraw threshold: 36.74 g
[1]; 20 mg/kg ip once a day, 13 d
  Paw withdraw threshold: 33.02 g
[1]; 20 mg/kg ip once a day, 14 d
  Paw withdraw threshold: 35.43 g
[1]; 20 mg/kg ip once a day, 15 d
  Paw withdraw threshold: 36.52 g
[1]; 20 mg/kg
  Paw withdrawal threshold compared with the model group: significant difference
[1]; 40 mg/kg ip once a day, 2 d
  Paw withdraw threshold: 18.53 g
[1]; 40 mg/kg ip once a day, 3 d
  Paw withdraw threshold: 24.94 g
[1]; 40 mg/kg ip once a day, 4 d
  Paw withdraw threshold: 36.37 g
[1]; 40 mg/kg ip once a day, 5 d
  Paw withdraw threshold: 42.83 g
[1]; 40 mg/kg ip once a day, 6 d
  Paw withdraw threshold: 43.59 g
[1]; 40 mg/kg ip once a day, 7 d
  Paw withdraw threshold: 45.85 g
[1]; 40 mg/kg ip once a day, 8 d
  Paw withdraw threshold: 50.41 g
[1]; 40 mg/kg ip once a day, 9 d
  Paw withdraw threshold: 46.49 g
[1]; 40 mg/kg ip once a day, 10 d
  Paw withdraw threshold: 48.77 g
[1]; 40 mg/kg ip once a day, 11 d
  Paw withdraw threshold: 44.59 g
[1]; 40 mg/kg ip once a day, 12 d
  Paw withdraw threshold: 50.52 g
[1]; 40 mg/kg ip once a day, 13 d
  Paw withdraw threshold: 43.72 g
[1]; 40 mg/kg ip once a day, 14 d
  Paw withdraw threshold: 48.73 g
[1]; 40 mg/kg ip once a day, 15 d
  Paw withdraw threshold: 46.51 g
[1]; 40 mg/kg
  Paw withdrawal threshold compared with the model group: significant difference
[1]; 80 mg/kg ip once a day, 2 d
  Paw withdraw threshold: 20.58 g
[1]; 80 mg/kg ip once a day, 3 d
  Paw withdraw threshold: 18.59 g
[1]; 80 mg/kg ip once a day, 4 d
  Paw withdraw threshold: 24.41 g
[1]; 80 mg/kg ip once a day, 5 d
  Paw withdraw threshold: 24.39 g
[1]; 80 mg/kg ip once a day, 6 d
  Paw withdraw threshold: 26.53 g
[1]; 80 mg/kg ip once a day, 7 d
  Paw withdraw threshold: 26.07 g
[1]; 80 mg/kg ip once a day, 8 d
  Paw withdraw threshold: 24.52 g
[1]; 80 mg/kg ip once a day, 9 d
  Paw withdraw threshold: 26.11 g
[1]; 80 mg/kg ip once a day, 10 d
  Paw withdraw threshold: 23.21 g
[1]; 80 mg/kg ip once a day, 11 d
  Paw withdraw threshold: 25.42 g
[1]; 80 mg/kg ip once a day, 12 d
  Paw withdraw threshold: 22.63 g
[1]; 80 mg/kg ip once a day, 13 d
  Paw withdraw threshold: 25.79 g
[1]; 80 mg/kg ip once a day, 14 d
  Paw withdraw threshold: 23.25 g
[1]; 80 mg/kg ip once a day, 15 d
  Paw withdraw threshold: 24.83 g
[1]; 80 mg/kg, p>0.05
  Mechanical paw withdrawal threshold compared with the model group: not statistically significant
IL-1β; 20 mg/kg ip once a day
  Cytokines IL-1β content in serum: 58.54 ± 8.23 ng/L
IL-1β; 20 mg/kg, p<0.05
  Serum level of IL-1β compared with the model-negative group: lower than those in the model-negative group
IL-1β; 40 mg/kg ip once a day
  Cytokines IL-1β content in serum: 52.71 ± 6.39 ng/L
IL-1β; 40 mg/kg, p<0.05
  Serum level of IL-1β compared with the model-negative group: lower than those in the model-negative group
IL-1β; 80 mg/kg ip once a day
  Cytokines IL-1β content in serum: 76.25 ± 4.62 ng/L
IL-1β; 80 mg/kg
  Serum level of IL-1β compared with the model-negative group: the difference was not significant
